{"source": "paper PMC2996728", "about": "(Archives of biochemistry and biophysics, 2009)", "biological_target": "T1, Microsomal glutathione transferase 1 (MGST1) (Rattus norvegicus, UniProt P08011)", "T1 sequence (P08011 2-155)": "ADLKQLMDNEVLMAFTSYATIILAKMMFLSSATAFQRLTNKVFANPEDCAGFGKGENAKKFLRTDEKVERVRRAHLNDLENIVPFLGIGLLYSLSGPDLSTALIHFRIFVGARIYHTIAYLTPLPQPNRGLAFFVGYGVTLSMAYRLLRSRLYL", "test": "equilibrium dialysis", "type": "binding", "data": [{"smiles": "N[C@@H](CCC(=O)N[C@@H](CSc1ccc([N+](=O)[O-])cc1[N+](=O)[O-])C(=O)NCC(=O)O)C(=O)O", "note": "[GSDNB, 1-S-glutathionyl-2,4-dinitrobenzene]", "values": [{"measurement": "Kd", "value": "320 ± 50", "unit": "µM"}]}]}
